Test results as given in ChEMBL document CHEMBL1148158, “Antineoplastic Agents. 510. Isolation and structure of dolastatin 19 from the Gulf of California sea hare Dolabella auricularia” (2004).
Converted amounts (≈) assume the structure as drawn.

Assays:
MCF7 = experiment: Growth inhibition of human MCF7 cells; assay type: functional
KM-20L2 = experiment: Growth inhibition of human KM20L2 cells; assay type: functional

CO[C@@H]1[C@@H](O)[C@@H](OC)[C@H](O[C@@H]2C[C@]3(O)O[C@H](C[C@H](OC)/C=C(\C)C[C@@H](/C=C/C=C/Br)OC(=O)[C@H]3C)[C@H]2C)O[C@H]1C [DOLASTATIN 19]
GI50 (MCF7): 0.72 µg/mL (≈ 1.14 µM) | GI50 (KM-20L2): 0.76 µg/mL (≈ 1.2 µM)
